From patent publication US20220298098A1, “HALOGENATED COMPOUNDS, PROCESS AND USES THEREOF” (Ciimar - Centro Interdisciplinar De Investigaçäo Marinha E …, priority 2019, published 2022)
Values after ≈ are worked out from the molar mass of the structure shown. Read-outs that look alike come from different tables or passages of the source.

Columns and labels:
[1] = tested on: Staphylococcus aureus S54F9; assay: Broth microdilution antibiotic susceptibility test; format: cell-based
Method: The methanolic extract was submitted to solid phase extraction (Waters Sep-Pak® Vac 35 cc 10 g C18 Cartridges) using mixtures of water/methanol (4:1 to 1:4; 4 to 8 column volumes each), yielding an enriched fraction free of chlorophylls and other pigments. The fraction was then chromatographed using semi-preparative HPLC conditions with a gradient of water/acetonitrile 19:1 to 0:1 (both with 0.1% of formic acid) as mobile phase. Fractions were collected every 30 s (total run time of 70 min) and 140 fractions were collected into 96-well deep well plates, and a 25% of a 67 mg 140-well fractionation was tested against Staphylococcus aureus S54F9. In order to carry out this broth microdilution antibiotic susceptibility test, 50 μL of each HPLC fraction resuspended in 14% MeOH in water were mixed with 50 μL of the S. aureus suspension at 10^6 CFU/mL in 2×MHB in a microtiter plate (final desired inoculum=5·10^5 CFU/mL, final concentration of MeOH in bioassay plate=7%, final volume per well=100 μL). The microtiter plate was replicated onto a selective/differential solid medium (Manitol Salt Agar) in order to distinguish between bacteriostatic and bactericidal activities. Growth controls (broth with bacterial inoculum, no bioactive molecule) as well as sterility (broth only) and solvent controls (broth with 7% MeOH in water) were included.

[2] = tested on: coagulase-negative staphylococci; assay: Biofilm formation inhibition, quantification of total biomass by violet crystal staining; format: cell-based; settings: for IC50: read-out: calculated concentration that inhibits the biofilm formation by 50%
Method: The biofilm forming ability of coagulase-negative staphylococci, when exposed to compounds 1, 2, 9 and 16, was assessed by quantification of total biomass by violet crystal staining.

[3] = S54F9, calculated from the antibiotic activities of the fractions in FIG. 1, range across compounds 1, 2, 9 and 16, read-out: predicted minimal inhibitory concentrations (MICs) against S. aureus
[4] = coagulase-negative staphylococci biofilm

C[C@H](OC(=O)CCCCCCCCCCCCl)C(=O)O [Compound 1, (S)-2-[(12-chlorododecanoyl)oxy]propanoic acid]
MIC [1, 3]: 1790 to 5790 µg/mL (≈ 5830 to 18900 µM) | inhibition at 70 µg/mL ([2]; biofilm formation, 70 mg/L): 0% | inhibition at 140 µg/mL ([2]; biofilm formation, 140 mg/L): 74% | IC50 [2, 4]: 55.1 µg/mL (≈ 180 µM)

CCCCCCC(Cl)CCCCC(=O)O[C@@H](C)C(=O)O (stereo partly drawn) [Compound 2, (S)-2-[(6-chlorododecanoyl)oxy]propanoic acid]
MIC [1, 3]: 1790 to 5790 µg/mL (≈ 5830 to 18900 µM) | inhibition at 16 µg/mL ([2]; biofilm formation, 16 mg/L): 0% | inhibition at 32.12 µg/mL ([2]; biofilm formation, 32.12 mg/L): 31% | inhibition at 64.25 µg/mL ([2]; biofilm formation, 64.25 mg/L): 74% | inhibition at 128.5 µg/mL ([2]; biofilm formation, 128.5 mg/L): 89% | inhibition at 257 µg/mL ([2]; biofilm formation, 257 mg/L): 90% | IC50 [2, 4]: 94.6 µg/mL (≈ 308 µM)

C[C@H](OC(=O)CCCCC(Cl)CCCCCCCl)C(=O)O (stereo partly drawn) [Compound 9, (S)-2-[(6,12-dichlorododecanoyl)oxy]propanoic acid]
MIC [1, 3]: 1790 to 5790 µg/mL (≈ 5250 to 17000 µM) | inhibition at 5.65 µg/mL ([2]; biofilm formation, 5.65 mg/L): 0% | inhibition at 11.25 µg/mL ([2]; biofilm formation, 11.25 mg/L): 22% | inhibition at 22.5 µg/mL ([2]; biofilm formation, 22.5 mg/L): 56% | inhibition at 35 µg/mL ([2]; biofilm formation, 35 mg/L): 62% | inhibition at 90 µg/mL ([2]; biofilm formation, 90 mg/L): 66% | inhibition at 180 µg/mL ([2]; biofilm formation, 180 mg/L): 76% | inhibition at 360 µg/mL ([2]; biofilm formation, 360 mg/L): 87% | inhibition at 721 µg/mL ([2]; biofilm formation, 721 mg/L): 88% | IC50 [2, 4]: 20.1 µg/mL (≈ 58.9 µM)

C[C@H](OC(=O)CCCCC(Cl)CCCCCC(Cl)Cl)C(=O)O (stereo partly drawn) [Compound 16, (S)-2-[(6,12,12-trichlorododecanoyl)oxy]propanoic acid]
MIC ([1]; S54F9, read-out: predicted minimal inhibitory concentrations (MICs) against S. aureus): 1790 to 5790 µg/mL (≈ 4760 to 15400 µM) | inhibition at 37.5 µg/mL [2]: 0% | inhibition at 75 µg/mL [2]: 68% | inhibition at 150 µg/mL [2]: 71% | IC50 [2]: 43.4 µg/mL (≈ 116 µM)
